Laboratory results: patent US20060069132A1, “Azolecarboxamide herbicides” (priority 2004, published 2006)

What was measured:
johnsongrass = assay: Test C pre-/postemergence herbicide test; type: in vivo, Sorghum halepense; conditions: for Johnsongrass plant response rating: 500 g ai/ha
In short: (§1)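 Emerged plants at the 1- to 4-leaf stage (2–18 cm), or freshly planted seeds, received test chemicals in a non-phytotoxic solvent mixture with surfactant. Response was visually scored against controls after 12 to 14 days in the greenhouse, on a 0 (no effect) to 100 (complete control) scale.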

barnyardgrass = assay: Test A pre-/postemergence herbicide test; type: in vivo, Echinochloa crus-galli; conditions: for Plant response rating, Barnyardgrass: Postemergence; for Barnyardgrass plant response rating: Preemergence
In short: (§2)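 Both application timings were run together: directed soil spray over freshly planted seeds in sandy loam, and runoff spray onto 2–10 cm seedlings. Evaluation after ~10 days in greenhouse used a 0–100 visual scale versus untreated controls.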

woolly cupgrass = assay: Test C pre-/postemergence herbicide test; type: in vivo, Eriochloa villosa; conditions: for Cupgrass, Woolly plant response rating: 500 g ai/ha
In short: as §1

[1] = system: common (oilseed) sunflower; assay: Test C pre-/postemergence herbicide test; type: in vivo, Helianthus annuus; conditions: for Plant response rating, Sunflower: visual, 12 to 14 days
In short: as §1

corn = assay: Test C pre-/postemergence herbicide test; type: in vivo, Zea mays; conditions: for Corn plant response rating: 500 g ai/ha
In short: as §1

morningglory = assay: Test A pre-/postemergence herbicide test; type: in vivo, Ipomoea spp.; conditions: for Plant response rating, Morningglory: Postemergence; for Morningglory plant response rating: Preemergence
In short: as §2

eastern black nightshade = assay: Test C pre-/postemergence herbicide test; type: in vivo, Solanum ptycanthum; conditions: for Plant response rating, Nightshade: visual, 12 to 14 days
In short: as §1

velvetleaf = assay: Test C pre-/postemergence herbicide test; type: in vivo, Abutilon theophrasti; conditions: for Velvetleaf plant response rating: 500 g ai/ha
In short: as §1

[2] = system: smallflower umbrella sedge; assay: Test C flooded paddy test; type: in vivo, Cyperus difformis; conditions: for Plant response rating, Sedge, Umbrella: visual rating after 12 to 14 days
Surinam grass = assay: Test C pre-/postemergence herbicide test; type: in vivo, Urochloa decumbens; conditions: for Surinam Grass plant response rating: 500 g ai/ha
In short: as §1

[3] = 125 g ai/ha, scale 0 (no effect) to 100 (complete control), visual, 12 to 14 days, preemergence
[4] = 250 g ai/ha, scale 0 to 100 (0 no effect, 100 complete control), visual, 12 to 14 days, preemergence
[5] = Postemergence, 125 g ai/ha, scale 0 to 100, 0 no effect, 100 complete control
[6] = Postemergence, 250 g ai/ha, scale 0 to 100, 0 no effect, 100 complete control
[7] = Preemergence, scale 0 to 100, 0 no effect, 100 complete control
[8] = postemergence, 62 g ai/ha, scale 0 to 100
[9] = 500 g ai/ha, 0 to 100 scale, 0 no effect, 100 complete control
[10] = 2000 g ai/ha, 0 to 100 scale, 0 no effect, 100 complete control
[11] = 500 g ai/ha, visual rating, 0 to 100 scale (0 no effect, 100 complete control)
[12] = 125 g ai/ha, scale 0 (no effect) to 100 (complete control), preemergence
[13] = 250 g ai/ha, scale 0 to 100 (0 no effect, 100 complete control), preemergence
[14] = Preemergence, 500 g ai/ha, scale 0 to 100, 0 no effect, 100 complete control

Q: Which results are given for C#CCNC(=O)c1cccc(NC(=O)c2cc(C(C)(C)C)nn2CC)c1 [Compound 47]?
A: Plant response rating (0 = no effect, 100 = complete control), Johnsongrass (johnsongrass; 62 g ai/ha, preemergence): 20; Plant response rating, Johnsongrass (johnsongrass; [3]): 100; Plant response rating, Johnsongrass (johnsongrass; [4]): 100; Johnsongrass plant response rating (johnsongrass; Postemergence, scale 0 to 100): 90; Plant response rating, Johnsongrass (johnsongrass; [5]): 30; Plant response rating, Johnsongrass (johnsongrass; [6]): 90; Johnsongrass plant response rating (johnsongrass; [7]): 100; Plant response rating, Johnsongrass (johnsongrass; [8]): 30; Plant response rating, Barnyardgrass (barnyardgrass; [9]): 90; Plant response rating, Barnyardgrass (barnyardgrass; [10]): 100; Barnyardgrass plant response rating (barnyardgrass; [11]): 90; Barnyardgrass plant response rating (barnyardgrass; [10]): 95; Plant response rating (0 = no effect, 100 = complete control), Cupgrass, Woolly (woolly cupgrass; 62 g ai/ha, preemergence): 10; Plant response rating, Cupgrass, Woolly (woolly cupgrass; [3]): 10; Plant response rating, Cupgrass, Woolly (woolly cupgrass; [4]): 60; Cupgrass, Woolly plant response rating (woolly cupgrass; Postemergence, scale 0 to 100): 80; Plant response rating, Cupgrass, Woolly (woolly cupgrass; [5]): 60; Plant response rating, Cupgrass, Woolly (woolly cupgrass; [6]): 70; Cupgrass, Woolly plant response rating (woolly cupgrass; [7]): 80; Plant response rating, Cupgrass, Woolly (woolly cupgrass; [8]): 60; Plant response rating (0 = no effect, 100 = complete control), Sunflower ([1]; 62 g ai/ha, preemergence): 0; Plant response rating, Sunflower [1, 12]: 0; Plant response rating, Sunflower [1, 13]: 10; Sunflower plant response rating [1, 14]: 40; Plant response rating (0 = no effect, 100 = complete control), Corn (corn; 62 g ai/ha, preemergence): 0; Plant response rating, Corn (corn; [3]): 0; Plant response rating, Corn (corn; [4]): 0; Corn plant response rating (corn; Postemergence, scale 0 to 100): 80; Plant response rating, Corn (corn; [5]): 70; Plant response rating, Corn (corn; [6]): 80; Corn plant response rating (corn; [7]): 10; Plant response rating, Corn (corn; [8]): 70; Plant response rating, Morningglory (morningglory; [9]): 20; Plant response rating, Morningglory (morningglory; [10]): 25; Morningglory plant response rating (morningglory; [11]): 20; Morningglory plant response rating (morningglory; [10]): 30; Plant response rating (0 = no effect, 100 = complete control), Nightshade (eastern black nightshade; 62 g ai/ha, preemergence): 100; Plant response rating, Nightshade (eastern black nightshade; [12]): 100; Plant response rating, Nightshade (eastern black nightshade; [13]): 100; Nightshade plant response rating (eastern black nightshade; [14]): 100; Plant response rating (0 = no effect, 100 = complete control), Velvetleaf (velvetleaf; 62 g ai/ha, preemergence): 40; Plant response rating, Velvetleaf (velvetleaf; [3]): 40; Plant response rating, Velvetleaf (velvetleaf; [4]): 100; Velvetleaf plant response rating (velvetleaf; Postemergence, scale 0 to 100): 90; Plant response rating, Velvetleaf (velvetleaf; [6]): 80; Velvetleaf plant response rating (velvetleaf; [7]): 100; Plant response rating, Velvetleaf (velvetleaf; [8]): 80; Sedge, Umbrella plant response rating ([2]; 62 g ai/ha, scale 0 to 100 (0 no effect, 100 complete control)): 30; Sedge, Umbrella plant response rating ([2]; 125 g ai/ha, scale of 0 to 100, 0 is no effect, 100 is complete control): 70; Plant response rating, Sedge, Umbrella ([2]; 250 g ai/ha, scale 0 to 100 (0 no effect, 100 complete control)): 80; Plant response rating, Sedge, Umbrella ([2]; 500 g ai/ha, scale 0 to 100 (0 no effect, 100 complete control)): 80; Plant response rating (0 = no effect, 100 = complete control), Surinam Grass (Surinam grass; 62 g ai/ha, preemergence): 0; Plant response rating, Surinam Grass (Surinam grass; [3]): 10; Plant response rating, Surinam Grass (Surinam grass; [4]): 60; Surinam Grass plant response rating (Surinam grass; Postemergence, scale 0 to 100): 70; Plant response rating, Surinam Grass (Surinam grass; [6]): 60; Surinam Grass plant response rating (Surinam grass; [7]): 80; Plant response rating, Surinam Grass (Surinam grass; [8]): 30
